The text below walks through data of publication PMC8213057, “Targeting ALK2: An Open Science Approach to Developing Therapeutics for the Treatment of Diffuse Intrinsic Pontine Glioma” (Journal of Medicinal Chemistry, 2020).

“And” between values parts separate entries of the source, which are not always exact repeats. Equal entries are not always repeated.

The target of assay [1] is T1, TSSK3/STK22C (Homo sapiens, UniProt Q96PN8).
T1 sequence (Q96PN8 1-268): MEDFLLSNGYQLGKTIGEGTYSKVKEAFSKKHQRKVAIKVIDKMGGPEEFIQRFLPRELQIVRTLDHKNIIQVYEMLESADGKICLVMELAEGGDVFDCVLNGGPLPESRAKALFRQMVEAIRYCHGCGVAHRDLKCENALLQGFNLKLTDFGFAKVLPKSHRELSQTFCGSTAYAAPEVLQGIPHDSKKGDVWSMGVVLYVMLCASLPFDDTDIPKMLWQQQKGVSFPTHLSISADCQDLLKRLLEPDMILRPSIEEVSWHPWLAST
Briefly: biochemical. The note with it: read-out: % enzyme activity, 1 μM; Run 1, Run 2.

Assay [2] has as its target T2, STK22D/TSSK1 (Homo sapiens, UniProt Q9BXA7).
T2 sequence (Q9BXA7 1-367): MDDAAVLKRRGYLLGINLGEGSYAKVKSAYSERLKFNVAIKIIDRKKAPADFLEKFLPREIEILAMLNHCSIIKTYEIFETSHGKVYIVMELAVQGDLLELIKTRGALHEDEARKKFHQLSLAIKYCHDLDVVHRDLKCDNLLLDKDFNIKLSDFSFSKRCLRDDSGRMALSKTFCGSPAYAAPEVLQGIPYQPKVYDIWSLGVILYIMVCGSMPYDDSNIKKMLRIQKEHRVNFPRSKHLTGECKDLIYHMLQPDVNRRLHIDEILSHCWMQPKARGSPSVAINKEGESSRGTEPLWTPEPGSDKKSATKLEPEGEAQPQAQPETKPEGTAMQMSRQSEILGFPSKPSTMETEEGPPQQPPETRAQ
Briefly: biochemical. Particulars: read-out: % enzyme activity, 1 μM; Run 1, Run 2.

Assay [3] has as its target BTK (Homo sapiens, UniProt Q06187). The note with it: 1 μM; Run 1, Run 2.
In assay [4] the target is ALK (Homo sapiens, UniProt Q9UM73). Briefly: biochemical. The note with it: read-out: % enzyme activity, 1 μM; Run 1, Run 2.
Assay [5] has as its target T3, PRKX (Homo sapiens, UniProt P51817).
T3 sequence (P51817 1-358): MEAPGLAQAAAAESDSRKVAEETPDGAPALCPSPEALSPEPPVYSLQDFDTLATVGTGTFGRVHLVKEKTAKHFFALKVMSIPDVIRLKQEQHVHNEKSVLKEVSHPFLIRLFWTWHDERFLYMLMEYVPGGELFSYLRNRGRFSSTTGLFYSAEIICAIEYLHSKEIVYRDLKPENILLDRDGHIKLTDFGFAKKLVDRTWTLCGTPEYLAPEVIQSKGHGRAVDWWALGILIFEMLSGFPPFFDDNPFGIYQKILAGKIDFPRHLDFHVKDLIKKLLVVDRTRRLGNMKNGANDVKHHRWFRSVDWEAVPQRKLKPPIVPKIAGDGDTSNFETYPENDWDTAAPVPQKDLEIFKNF
Briefly: biochemical. The note with it: read-out: % enzyme activity, 1 μM; Run 1, Run 2.

Assay [6] concerns the target EPHA2 (Homo sapiens, UniProt P29317). Briefly: biochemical. The note with it: read-out: % enzyme activity, 1 μM; Run 1, Run 2.
Assay [7] deals with PLK2 (Homo sapiens, UniProt Q9NYY3). Particulars: 1 μM; Run 1, Run 2.
Assay [8] addresses RSK1 (Homo sapiens, UniProt Q15418). Particulars: 1 μM; Run 1, Run 2.
The subject of assay [9] is MINK/MINK1.
Assay [10] deals with SIK1 (Homo sapiens, UniProt P57059). Particulars: 1 μM; Run 1, Run 2.
The target of assay [11] is T4, CTK/MATK (Homo sapiens, UniProt P42679).
T4 sequence (P42679 1-507): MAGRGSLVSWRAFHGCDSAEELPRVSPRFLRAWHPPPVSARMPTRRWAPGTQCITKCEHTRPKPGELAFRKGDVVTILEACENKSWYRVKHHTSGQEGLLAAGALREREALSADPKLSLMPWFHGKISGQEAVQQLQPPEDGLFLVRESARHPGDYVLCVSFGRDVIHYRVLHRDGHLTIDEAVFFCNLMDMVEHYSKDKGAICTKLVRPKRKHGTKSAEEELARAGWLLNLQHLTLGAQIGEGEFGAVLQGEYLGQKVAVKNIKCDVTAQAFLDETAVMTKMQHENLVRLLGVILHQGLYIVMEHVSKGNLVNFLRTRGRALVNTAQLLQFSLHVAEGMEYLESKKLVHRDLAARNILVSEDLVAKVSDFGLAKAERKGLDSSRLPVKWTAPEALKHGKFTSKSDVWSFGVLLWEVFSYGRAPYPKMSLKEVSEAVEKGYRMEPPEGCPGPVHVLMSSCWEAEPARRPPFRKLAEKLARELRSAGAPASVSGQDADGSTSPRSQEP
Briefly: biochemical. The note with it: read-out: % enzyme activity, 1 μM; Run 1, Run 2.

For assay [12], the target named is PKAcg (Homo sapiens, UniProt P22612). Particulars: 1 μM; Run 1, Run 2.
In assay [13] the target is T5, MST1/STK4 (Homo sapiens, UniProt Q13043).
T5 sequence (Q13043 1-487): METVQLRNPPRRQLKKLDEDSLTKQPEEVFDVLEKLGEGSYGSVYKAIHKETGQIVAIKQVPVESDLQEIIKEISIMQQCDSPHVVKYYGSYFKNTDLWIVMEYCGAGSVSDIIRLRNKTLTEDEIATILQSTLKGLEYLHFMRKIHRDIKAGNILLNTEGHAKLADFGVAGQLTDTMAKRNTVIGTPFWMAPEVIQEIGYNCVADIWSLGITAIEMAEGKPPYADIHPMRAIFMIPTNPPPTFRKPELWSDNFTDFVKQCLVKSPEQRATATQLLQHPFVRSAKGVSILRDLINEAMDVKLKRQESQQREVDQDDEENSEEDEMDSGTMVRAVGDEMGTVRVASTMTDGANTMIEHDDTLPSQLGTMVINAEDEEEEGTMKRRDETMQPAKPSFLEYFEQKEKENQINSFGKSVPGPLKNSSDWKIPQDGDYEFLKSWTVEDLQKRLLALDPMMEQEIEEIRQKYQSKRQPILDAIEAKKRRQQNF
Particulars: 1 μM; Run 1, Run 2.

The target of assay [14] is CK1g1 (Homo sapiens, UniProt Q9HCP0). Briefly: biochemical. The note with it: read-out: % enzyme activity, 1 μM; Run 1, Run 2.
Assay [15] deals with PAK6 (Homo sapiens, UniProt Q9NQU5). Briefly: biochemical. Particulars: read-out: % enzyme activity, 1 μM; Run 1, Run 2.
Assay [16] deals with HCK (Homo sapiens, UniProt P08631). The note with it: 1 μM; Run 1, Run 2.
HCK, sequence (P08631 whole entry): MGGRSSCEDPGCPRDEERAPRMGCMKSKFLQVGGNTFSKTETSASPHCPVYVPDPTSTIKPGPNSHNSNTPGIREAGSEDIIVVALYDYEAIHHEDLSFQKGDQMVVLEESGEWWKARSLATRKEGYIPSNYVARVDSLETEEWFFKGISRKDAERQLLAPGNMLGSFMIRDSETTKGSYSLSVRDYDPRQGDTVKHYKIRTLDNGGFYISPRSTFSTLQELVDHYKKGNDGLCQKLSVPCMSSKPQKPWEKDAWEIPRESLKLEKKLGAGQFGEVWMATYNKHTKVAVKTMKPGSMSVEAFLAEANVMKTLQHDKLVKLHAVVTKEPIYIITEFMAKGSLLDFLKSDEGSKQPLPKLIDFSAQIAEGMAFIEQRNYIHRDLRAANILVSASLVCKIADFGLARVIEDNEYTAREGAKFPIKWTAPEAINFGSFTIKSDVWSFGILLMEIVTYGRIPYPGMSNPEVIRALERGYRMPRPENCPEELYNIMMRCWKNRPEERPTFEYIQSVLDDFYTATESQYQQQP

PAK6, sequence (Q9NQU5 whole entry): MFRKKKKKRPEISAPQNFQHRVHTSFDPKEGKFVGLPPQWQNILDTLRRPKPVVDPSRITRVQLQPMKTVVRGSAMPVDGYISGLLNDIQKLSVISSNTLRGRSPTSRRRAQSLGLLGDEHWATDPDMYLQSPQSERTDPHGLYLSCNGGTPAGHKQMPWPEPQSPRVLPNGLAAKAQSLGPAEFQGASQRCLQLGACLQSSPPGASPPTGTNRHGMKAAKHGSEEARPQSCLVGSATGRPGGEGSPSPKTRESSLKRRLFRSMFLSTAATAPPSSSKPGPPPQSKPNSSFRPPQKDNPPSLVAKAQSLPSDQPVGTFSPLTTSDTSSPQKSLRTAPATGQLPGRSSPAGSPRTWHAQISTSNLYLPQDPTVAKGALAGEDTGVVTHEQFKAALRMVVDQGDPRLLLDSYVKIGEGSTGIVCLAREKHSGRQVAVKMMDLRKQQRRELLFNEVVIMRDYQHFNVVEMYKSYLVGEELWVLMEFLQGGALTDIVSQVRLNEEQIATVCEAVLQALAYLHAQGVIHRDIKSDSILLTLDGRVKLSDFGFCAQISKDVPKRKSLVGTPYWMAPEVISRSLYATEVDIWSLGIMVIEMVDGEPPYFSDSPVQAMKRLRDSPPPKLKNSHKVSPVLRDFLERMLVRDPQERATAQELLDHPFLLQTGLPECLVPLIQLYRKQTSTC
EPHA2, sequence (P29317 24-976): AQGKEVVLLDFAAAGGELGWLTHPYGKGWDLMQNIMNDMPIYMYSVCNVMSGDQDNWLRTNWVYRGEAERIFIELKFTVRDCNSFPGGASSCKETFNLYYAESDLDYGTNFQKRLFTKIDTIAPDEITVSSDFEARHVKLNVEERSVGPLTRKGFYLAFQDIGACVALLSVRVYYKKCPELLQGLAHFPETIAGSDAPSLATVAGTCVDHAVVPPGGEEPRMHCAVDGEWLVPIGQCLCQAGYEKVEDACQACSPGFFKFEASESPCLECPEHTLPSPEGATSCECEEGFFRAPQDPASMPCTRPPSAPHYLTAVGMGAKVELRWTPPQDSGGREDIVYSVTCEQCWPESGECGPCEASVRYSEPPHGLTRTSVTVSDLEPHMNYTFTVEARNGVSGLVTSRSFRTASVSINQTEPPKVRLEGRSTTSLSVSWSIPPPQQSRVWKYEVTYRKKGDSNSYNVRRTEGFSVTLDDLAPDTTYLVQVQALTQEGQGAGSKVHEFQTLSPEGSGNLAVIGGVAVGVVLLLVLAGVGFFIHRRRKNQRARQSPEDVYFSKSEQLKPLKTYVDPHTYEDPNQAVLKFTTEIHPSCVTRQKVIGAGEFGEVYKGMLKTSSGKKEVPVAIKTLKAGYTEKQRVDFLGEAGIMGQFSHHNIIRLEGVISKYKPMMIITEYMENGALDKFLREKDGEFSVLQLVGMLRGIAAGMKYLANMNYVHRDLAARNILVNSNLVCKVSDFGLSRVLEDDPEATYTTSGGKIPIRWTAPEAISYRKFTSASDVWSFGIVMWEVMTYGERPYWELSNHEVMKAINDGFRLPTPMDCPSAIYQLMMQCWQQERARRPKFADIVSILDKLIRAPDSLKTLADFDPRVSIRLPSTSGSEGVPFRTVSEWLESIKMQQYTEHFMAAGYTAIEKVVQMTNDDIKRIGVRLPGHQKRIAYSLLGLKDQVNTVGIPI
PLK2, sequence (Q9NYY3 whole entry): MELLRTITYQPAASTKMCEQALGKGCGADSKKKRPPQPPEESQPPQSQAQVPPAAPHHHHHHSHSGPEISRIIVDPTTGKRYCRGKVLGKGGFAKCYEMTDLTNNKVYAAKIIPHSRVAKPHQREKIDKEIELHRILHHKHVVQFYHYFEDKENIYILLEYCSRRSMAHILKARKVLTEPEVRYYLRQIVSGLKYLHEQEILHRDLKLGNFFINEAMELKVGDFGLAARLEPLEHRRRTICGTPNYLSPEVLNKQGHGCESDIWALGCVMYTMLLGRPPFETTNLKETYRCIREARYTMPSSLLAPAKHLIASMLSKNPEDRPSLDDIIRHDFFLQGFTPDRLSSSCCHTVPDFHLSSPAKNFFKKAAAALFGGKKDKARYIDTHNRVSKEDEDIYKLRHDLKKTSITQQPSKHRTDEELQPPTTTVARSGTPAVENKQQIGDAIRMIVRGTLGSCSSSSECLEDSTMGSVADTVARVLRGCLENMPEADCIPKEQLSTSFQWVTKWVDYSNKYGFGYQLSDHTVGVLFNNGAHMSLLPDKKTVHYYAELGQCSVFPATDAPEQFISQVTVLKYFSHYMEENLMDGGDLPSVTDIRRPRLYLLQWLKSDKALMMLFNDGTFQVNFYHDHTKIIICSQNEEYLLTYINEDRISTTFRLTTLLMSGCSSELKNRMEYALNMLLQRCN
BTK, sequence (Q06187 whole entry): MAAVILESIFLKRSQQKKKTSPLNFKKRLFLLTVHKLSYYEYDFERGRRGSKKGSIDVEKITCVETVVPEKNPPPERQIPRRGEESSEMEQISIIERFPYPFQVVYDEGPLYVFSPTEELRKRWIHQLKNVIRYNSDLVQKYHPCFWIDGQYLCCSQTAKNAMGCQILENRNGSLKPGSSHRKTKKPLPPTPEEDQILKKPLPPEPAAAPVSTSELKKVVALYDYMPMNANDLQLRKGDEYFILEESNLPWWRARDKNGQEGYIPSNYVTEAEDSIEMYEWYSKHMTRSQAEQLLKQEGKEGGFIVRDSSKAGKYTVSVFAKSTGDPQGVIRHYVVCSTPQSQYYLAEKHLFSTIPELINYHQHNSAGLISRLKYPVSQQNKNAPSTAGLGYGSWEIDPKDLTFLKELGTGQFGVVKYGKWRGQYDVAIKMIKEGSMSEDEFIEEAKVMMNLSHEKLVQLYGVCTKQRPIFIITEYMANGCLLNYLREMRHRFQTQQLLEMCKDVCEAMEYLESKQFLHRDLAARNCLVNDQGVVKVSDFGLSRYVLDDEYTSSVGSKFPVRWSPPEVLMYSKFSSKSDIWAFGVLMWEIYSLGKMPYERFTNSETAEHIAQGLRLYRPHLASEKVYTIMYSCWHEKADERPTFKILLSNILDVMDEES
PKAcg, sequence (P22612 whole entry): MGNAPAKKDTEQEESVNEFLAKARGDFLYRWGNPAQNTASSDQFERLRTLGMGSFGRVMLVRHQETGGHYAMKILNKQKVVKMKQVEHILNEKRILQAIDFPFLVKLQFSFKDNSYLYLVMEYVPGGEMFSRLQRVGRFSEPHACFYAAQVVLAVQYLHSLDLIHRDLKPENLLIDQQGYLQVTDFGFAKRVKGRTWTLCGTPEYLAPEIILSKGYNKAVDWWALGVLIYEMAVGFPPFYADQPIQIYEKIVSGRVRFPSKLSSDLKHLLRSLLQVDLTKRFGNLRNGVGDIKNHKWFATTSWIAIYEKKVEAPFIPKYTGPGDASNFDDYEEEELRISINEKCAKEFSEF
CK1g1, sequence (Q9HCP0 whole entry): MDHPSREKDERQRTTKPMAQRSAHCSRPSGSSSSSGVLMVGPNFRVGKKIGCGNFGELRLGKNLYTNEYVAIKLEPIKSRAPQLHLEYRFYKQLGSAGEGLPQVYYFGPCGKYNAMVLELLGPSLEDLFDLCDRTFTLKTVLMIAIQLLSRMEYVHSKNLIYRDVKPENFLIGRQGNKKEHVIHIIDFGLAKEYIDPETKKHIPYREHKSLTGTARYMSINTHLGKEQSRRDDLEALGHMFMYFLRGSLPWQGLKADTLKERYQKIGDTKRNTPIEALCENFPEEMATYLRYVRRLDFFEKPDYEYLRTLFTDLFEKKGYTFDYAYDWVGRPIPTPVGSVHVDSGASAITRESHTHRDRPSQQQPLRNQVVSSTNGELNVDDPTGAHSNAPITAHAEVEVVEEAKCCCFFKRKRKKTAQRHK
RSK1, sequence (Q15418 whole entry): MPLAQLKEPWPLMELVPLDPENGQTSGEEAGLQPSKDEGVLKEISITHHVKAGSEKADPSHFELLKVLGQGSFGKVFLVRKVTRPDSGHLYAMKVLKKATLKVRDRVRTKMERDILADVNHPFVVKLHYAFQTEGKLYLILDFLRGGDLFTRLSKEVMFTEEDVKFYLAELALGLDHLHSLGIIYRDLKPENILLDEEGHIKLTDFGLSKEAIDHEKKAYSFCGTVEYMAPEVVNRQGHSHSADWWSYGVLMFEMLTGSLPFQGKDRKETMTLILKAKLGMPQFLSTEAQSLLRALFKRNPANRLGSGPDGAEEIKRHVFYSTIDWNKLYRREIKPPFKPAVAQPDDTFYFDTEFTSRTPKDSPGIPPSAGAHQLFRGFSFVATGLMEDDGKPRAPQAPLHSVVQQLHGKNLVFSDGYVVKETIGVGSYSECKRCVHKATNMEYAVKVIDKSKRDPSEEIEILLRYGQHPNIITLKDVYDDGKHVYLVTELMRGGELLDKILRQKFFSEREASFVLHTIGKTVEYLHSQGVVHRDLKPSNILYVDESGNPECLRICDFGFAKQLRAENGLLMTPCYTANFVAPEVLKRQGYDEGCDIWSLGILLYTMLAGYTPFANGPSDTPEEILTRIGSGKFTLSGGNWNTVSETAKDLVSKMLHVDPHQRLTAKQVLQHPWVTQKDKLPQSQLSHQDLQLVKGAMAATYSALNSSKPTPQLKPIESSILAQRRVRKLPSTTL

For `COc1cc(-c2cncc(-c3ccc(N4CCN(C)CC4)cc3)c2C)cc(F)c1C(N)=O` [Compound 26a, 2-Fluoro-6-methoxy-4-(4-methyl-5-(4-(4-methylpiperazin-1-yl)phenyl)pyridin-3-yl)benzamide], the remaining activity at 1 µM is 96.6% in [1]; 97.5% in [2]; 99.9% in assay [4]; 99.9% in assay [5]; 103% in assay [6]; 95.2% in assay [11]. The remaining activity at 1 µM worked out at 57.7% in assay [14] and 102% in [15]. Further, the “% enzyme activity” value amounted to 94.35% in assay [3]; 97.24% in [7]; 97.99% in assay [8]; 82.71% in assay [10]; 93.99% in assay [12]; 100.26% in assay [13]. The “% enzyme activity” value in assay [16] is given as 91.96%. Also, in assay [9], the % enzyme activity at 1 μM was 24.1% and 22.6%.

As to `COc1cc(-c2cncc(-c3ccc(N4C[C@@H](C)N(C)[C@@H](C)C4)cc3)c2C)cc(F)c1C(N)=O` [Compound 26c, 2-Fluoro-6-methoxy-4-(4-methyl-5-(4-((3R,5S)-3,4,5-trimethylpiperazin-1-yl)phenyl)pyridin-3-yl)benzamide], the remaining activity at 1 µM in [1] worked out at 96.6%; in assay [2] it was 101%; in [4], 101%; in assay [5] it was 91.3%; in [6], 108%; in assay [11], 99.2%. Besides, the remaining activity at 1 µM is 71.7% in [14] and 96.3% in assay [15]. In addition, the “% enzyme activity” value is 94.07% in [3]; 102.38% in assay [7]; 101.00% in assay [8]; 91.60% in [10]; 98.97% in [12]; 101.65% in assay [13]. The “% enzyme activity” value in assay [16] was determined as 88.06%. Also, the % enzyme activity at 1 μM in assay [9] is 30.2% and 29.6%.
